Laboratory results: patent publication US5621133A (priority 1995, dated 1997)
Where a name gives a salt, the structure may show the parent alone.

Legend:
dopamine D-2 receptor = dopamine D-2 receptor (Rattus norvegicus, UniProt P61169); assay: biochemical; format: binding; conditions: rat caudate, [125I]-p-aminophenylethyl spiroperidol; read-out: D-2 Ki
Method: Homogenized rat caudate was the source of the D-2 receptors. […] The molar affinity of the compound for the receptor binding site was calculated by the same method used for the D-1 receptor assay, assuming a competitive interaction between the compound and the radiolabeled ligand.

[1] = test system: striatal dopamine receptors; assay: Rotation behavior assay of in vivo activity (6-hydroxydopamine lesioned rat rotational model); conditions: for ED50 s.c. (rotation behavior): injected subcutaneously
dopamine D-1 receptor [2] = conditions: for Intrinsic Activity (adenylate cyclase assay): dopamine = 100, goldfish retina or rat striatum; for EC50: read-out: EC50 (agonist activity in adenylate cyclase assay), tissue from goldfish retina or rat striatum
Method: In order to determine agonist activity, cell-free tissue homogenates are incubated in an ionic buffer solution containing ATP and the compound being evaluated. The tissue was obtained from either goldfish retina or rat striatum.

dopamine D-1 receptor [3] = target: dopamine D-1 receptor (Rattus norvegicus, UniProt P18901); assay: biochemical; conditions: D-1 Ki, rat caudate, [125I]SCH-23982
Chain of dopamine D-1 receptor (Rattus norvegicus, UniProt P18901) (P18901 whole entry): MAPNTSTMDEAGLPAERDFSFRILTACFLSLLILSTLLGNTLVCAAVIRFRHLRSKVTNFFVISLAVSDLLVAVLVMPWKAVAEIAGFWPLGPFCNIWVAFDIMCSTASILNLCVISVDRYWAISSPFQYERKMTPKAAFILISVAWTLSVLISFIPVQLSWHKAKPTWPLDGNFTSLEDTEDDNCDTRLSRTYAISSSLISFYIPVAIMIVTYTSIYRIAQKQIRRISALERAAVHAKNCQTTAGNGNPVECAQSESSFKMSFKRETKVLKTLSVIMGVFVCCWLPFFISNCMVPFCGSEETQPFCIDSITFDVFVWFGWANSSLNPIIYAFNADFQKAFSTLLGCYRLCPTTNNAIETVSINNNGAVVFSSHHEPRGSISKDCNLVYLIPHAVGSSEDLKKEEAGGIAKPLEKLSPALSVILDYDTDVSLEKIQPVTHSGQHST
Excerpt: The compounds compete with the radiolabeled ligand for occupancy of the receptors and the molar potency of each compound was quantified.
The Ki values are inversely proportional to the affinity of the compound for the receptor.

Chain of dopamine D-2 receptor (P61169 whole entry): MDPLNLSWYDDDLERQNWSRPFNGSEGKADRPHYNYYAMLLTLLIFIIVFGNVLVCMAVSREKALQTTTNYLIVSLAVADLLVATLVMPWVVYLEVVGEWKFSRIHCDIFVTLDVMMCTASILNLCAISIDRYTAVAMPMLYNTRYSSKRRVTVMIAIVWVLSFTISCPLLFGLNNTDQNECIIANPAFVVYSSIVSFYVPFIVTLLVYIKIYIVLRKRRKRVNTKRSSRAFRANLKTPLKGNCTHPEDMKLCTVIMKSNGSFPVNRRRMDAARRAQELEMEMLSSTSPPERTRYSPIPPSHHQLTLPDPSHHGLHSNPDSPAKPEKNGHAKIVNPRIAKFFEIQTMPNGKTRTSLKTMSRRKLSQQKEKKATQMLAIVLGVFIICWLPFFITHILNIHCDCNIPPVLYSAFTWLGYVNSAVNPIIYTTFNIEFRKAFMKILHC

Compound | Ki (dopamine D-2 receptor) | ED50 s.c. (rotation behavior) [1] | Intrinsic Activity (adenylate cyclase assay) (dopamine D-1 receptor [2]) | EC50 (dopamine D-1 receptor [2]) | Ki (dopamine D-1 receptor [3]) | mean rotations over 360 minutes ([1]; dose = 143 micromoles/kg p.o.) | mean rotations over 20 hours ([1]; dose = 143 micromoles/kg p.o.)
CC(C)CC1Cc2c(ccc(O)c2O)C(CN)O1 (stereo not shown) [Example 216] | 3700 nM | 0.07 µmol/kg | 114 | 5 nM | 3 nM | – | –
C[C@H](N)C(=O)N[C@@H](C)C(=O)NCC1=CC(c2ccccc2)Cc2c1ccc(OC(=O)c1ccccc1)c2OC(=O)c1ccccc1 (stereo partly shown) [Example 15] | – | – | – | – | – | 1760 | –
CNCC1OC(CC(C)C)Cc2c1ccc(O)c2O (stereo not shown) [Example 219] | 1600 nM | 0.09 µmol/kg | – | – | 4000 nM | – | –
CN1CCC2=C(C1)c1ccc(O)c(O)c1CC2C(C)(C)C (stereo not shown) [Example 244] | 1200 nM | > 3 µmol/kg | – | – | 240 nM | – | –
CC(=O)Oc1ccc2c(c1OC(C)=O)CC(c1ccccc1)C=C2CNC(=O)[C@H](C)NC(=O)[C@H](C)N (stereo partly shown) [Example 4, 5,6-Bis(acetoxy)-1-(alanyl-alanyl)aminomethyl-3-phenyl-3,4-dihydronaphthalene Hydrochloride] | – | – | – | – | – | 3329 | –
CSCC[C@H](N)C(=O)NCC1=CC(c2ccccc2)Cc2c1ccc(OC(C)=O)c2OC(C)=O (stereo partly shown) [Example 14] | – | – | – | – | – | 3653 | –
CC(=O)Oc1ccc2c(c1OC(C)=O)CC(c1ccccc1)C=C2CNC(=O)[C@H](C)N (stereo partly shown) [Example 10] | – | – | – | – | – | 1516 | –
CC(=O)Oc1ccc2c(c1OC(C)=O)CC(c1ccccc1)C=C2CNC(=O)OC(C)OC(C)=O (stereo not shown) [Example 6] | – | – | – | – | – | – | 2564
Oc1ccc2c(c1O)CC1(CCCCCC1)C1=C2CNCC1 [Example 206] | 1600 nM | – | 79 | 68 nM | 26 nM | – | –
NC[C@H]1O[C@@H](CCO)Cc2c1ccc(O)c2O (relative stereo) [Example 160] | 1700 nM | – | 136 | 140 nM | 1300 nM | – | –
NC[C@@H]1O[C@H](c2ccccc2)Cc2c1cc(Br)c(O)c2O (relative stereo) [Example 62] | 3700 nM | – | 111 | 170 nM | 210 nM | – | –
COc1ccc(OC[C@H]2Cc3c(ccc(O)c3O)[C@@H](CN)O2)cc1 (relative stereo) [Example 53] | 650 nM | – | 67 | 23 nM | 250 nM | – | –
CCCC(=O)Oc1ccc2c(c1OC(=O)CCC)CC(c1ccccc1)C=C2CN (stereo not shown) [Example 17] | > 10000 nM | – | 42 | 2800 nM | 800 nM | – | –
Oc1ccc2c(c1O)CC(CC1CCCC1)C1=C2CNCC1 (stereo not shown) [Example 209] | 2800 nM | – | 25 | – | 490 nM | – | –
CNC[C@H]1O[C@@H](Cc2ccc(OC)cc2)Cc2c1ccc(O)c2O (relative stereo) [Example 137] | 550 nM | – | 93 | 1000 nM | 2900 nM | – | –
CCCCC1Cc2c(ccc(O)c2O)C2=C1CCNC2 (stereo not shown) [Example 243] | 3000 nM | – | 83 | 950 nM | 70 nM | – | –
Cl.NCC1=CC(c2ccccc2)Cc2c1ccc(OC(=O)c1ccccc1)c2OC(=O)c1ccccc1 (stereo not shown) [Example 16, 1-Aminomethyl-5,6-bis(benzoyloxy)-3-phenyl-3,4-dihydronaphthalene Hydrochloride] | – | – | – | – | – | 4844 | –
Cl.NCc1cc(-c2ccccc2)cc2c(O)c(O)ccc12 [Example 46, 1-Aminomethyl-5,6-dihydroxy-3-phenylnaphthalene Hydrochloride] | > 10000 nM | – | 69 | 220 nM | 1700 nM | – | –
NCC1CC2(CCCCCC2)Cc2c1ccc(O)c2O (stereo not shown) [Example 193] | 3200 nM | – | 63 | 680 nM | 650 nM | – | –

Compound | Ki (dopamine D-2 receptor) | ED50 s.c. (rotation behavior) [1] | Intrinsic Activity (adenylate cyclase assay) (dopamine D-1 receptor [2]) | EC50 (dopamine D-1 receptor [2]) | Ki (dopamine D-1 receptor [3]) | mean rotations over 360 minutes ([1]; dose = 143 micromoles/kg p.o.) | mean rotations over 20 hours ([1]; dose = 143 micromoles/kg p.o.)
CC(C)C(=O)NC[C@H]1Cc2c(ccc(O)c2O)[C@@H](CN)O1 (relative stereo) [Example 171] | 810 nM | – | 124 | 180 nM | 530 nM | – | –
NC[C@H]1C[C@@H](c2ccc3ccccc3c2)Cc2c1ccc(O)c2O (relative stereo) [Example 43] | 12000 nM | – | 70 | 150 nM | 2400 nM | – | –
NCC1CC2(CCCCCCCCC2)Cc2c1ccc(O)c2O (stereo not shown) [Example 237] | > 10000 nM | – | 34 | 1900 nM | 6500 nM | – | –
NCC1=CC2(CCCCC2)Cc2c1ccc(O)c2O [Example 189] | > 10000 nM | – | 65 | 1500 nM | 3300 nM | – | –
CN(C)C[C@@H]1O[C@H](C2(c3ccccc3)CCCCC2)Cc2c1ccc(O)c2O (relative stereo) [Example 229] | 3600 nM | – | 34 | 330 nM | 260 nM | – | –
CNCC1OC2(CCOCC2)Cc2c1ccc(O)c2O (stereo not shown) [Example 143] | > 10000 nM | – | 94 | 1100 nM | 1200 nM | – | –
NC[C@H]1O[C@@H](CN2CCOCC2)Cc2c1ccc(O)c2O (relative stereo) [Example 157] | 16000 nM | – | 111 | 520 nM | 1300 nM | – | –
C=CCNC[C@H]1O[C@@H](C23CC4CC(CC(C4)C2)C3)Cc2c1ccc(O)c2O (relative stereo) [Example 117] | 1000 nM | – | 60 | 80 nM | 1200 nM | – | –
NCC1OC2(CCCCC2)Cc2c1ccc(O)c2O (stereo not shown) [Example 52] | 6200 nM | – | 65 | 71 nM | 900 nM | – | –
CCC(C)C(C)[C@@H]1Cc2c(ccc(O)c2O)[C@H](CN)O1 (stereo partly shown) [Example 72] | 8200 nM | – | 80 | 170 nM | 15 nM | – | –
NC[C@@H]1O[C@H](C2CCCCC2)Cc2c1cc(Br)c(O)c2O (relative stereo) [Example 81] | 4600 nM | – | 61 | 67 nM | 210 nM | – | –
CCCC(=O)NC[C@@H]1Cc2c(ccc(O)c2O)[C@H](CN)O1 (relative stereo) [Example 169] | > 10000 nM | – | 150 | 200 nM | 8000 nM | – | –
NC[C@H]1C[C@@H](c2cccc(O)c2)Cc2c1ccc(O)c2O (relative stereo) [Example 42] | 3900 nM | – | 98 | 6 nM | 61 nM | – | –
CNCC1=CC(c2ccccc2)Cc2c1ccc(O)c2O (stereo not shown) [Example 149, 5,6-Dihydroxy-1-(N-methyl)aminomethyl-3-phenyl-3,4,-dihydronaphthalene] | 19000 nM | – | 78 | 36 nM | 460 nM | – | –
C#CCNC[C@H]1O[C@@H](C2CCCCC2)Cc2c1ccc(O)c2O (relative stereo) [Example 118] | 6700 nM | – | 87 | 56 nM | 2500 nM | – | –
CC(C)(C)C(=O)NC[C@H]1Cc2c(ccc(O)c2O)[C@@H](CN)O1 (relative stereo) [Example 166] | 2400 nM | – | 97 | 180 nM | 4800 nM | – | –
O=CO.Oc1ccc2c(c1O)CC(c1ccccc1)C1=C2CNC1 (stereo not shown) [Example 184, 6,7-Dihydroxy-4-phenyl-2,3,4,5-tetrahydro-1H-benz[e]isoindole Formic Acid Salt] | > 10000 nM | – | 47 | 22 nM | 70 nM | – | –
CN1CCC2=C(C1)c1ccc(O)c(O)c1CC21CCCCCCC1 [Example 250] | 1600 nM | 0.51 µmol/kg | – | – | 150 nM | – | –
